Assay results published in patent US12655088B2, “Compound for treating Alzheimer's disease” (XIAMEN UNIVERSITY, priority 2020, dated 2026).

How the values were obtained:
[1] = target: T1, USP25 (His-USP25^a.a.157-706 recombinant protein, deubiquitinase catalytic domain) (Homo sapiens, UniProt Q9UHP3); experiment: Screening of USP25 inhibitors with Ubiquitin-Rhodamine 110; details: 10 μM compound, 33.3 nM His-USP25^157-706, 133.3 nM Ubiquitin-Rhodamine 110
T1 sequence (Q9UHP3 157-706): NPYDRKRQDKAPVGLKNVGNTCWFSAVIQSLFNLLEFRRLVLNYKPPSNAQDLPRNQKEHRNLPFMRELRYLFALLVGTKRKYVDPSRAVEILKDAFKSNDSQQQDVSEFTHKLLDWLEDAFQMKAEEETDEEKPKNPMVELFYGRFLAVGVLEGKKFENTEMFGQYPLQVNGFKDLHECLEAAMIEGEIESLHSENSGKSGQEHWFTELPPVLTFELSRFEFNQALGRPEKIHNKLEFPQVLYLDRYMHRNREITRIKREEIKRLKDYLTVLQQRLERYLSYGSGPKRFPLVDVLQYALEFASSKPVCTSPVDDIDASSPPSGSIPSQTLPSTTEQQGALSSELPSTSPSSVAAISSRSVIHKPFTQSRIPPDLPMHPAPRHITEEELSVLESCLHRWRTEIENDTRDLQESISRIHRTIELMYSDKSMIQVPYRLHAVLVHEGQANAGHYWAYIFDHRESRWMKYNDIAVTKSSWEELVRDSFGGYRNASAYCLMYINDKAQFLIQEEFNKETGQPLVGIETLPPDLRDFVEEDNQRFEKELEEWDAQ
Text: And then, the fluorescence intensity of Ubiquitin-Rhodamine 110 was detected by a Tecan Spark multifunctional microplate reader (Tecan, Switzerland).

[2] = test system: Mouse microglial cell line BV2; experiment: LPS-induced inflammatory response in microglia cell line BV2 (real-time PCR of Il1b); assay type: cell-based; details: 10 μM compound
Protocol: Mouse microglial cell line BV2 was treated with 25 ng/mL lipopolysaccharide (LPS) and 10 μM MZ3, respectively.
(§1) After the cells were treated for 24 hours, RNAs were extracted by TRIzol (Thermo Fisher Scientific), and then reverse-transcribed using Rever Tra Ace qPCR RT Kit (TOYOBO), and real-time fluorescence quantification PCR was performed using FastStart Universal SYBR Green Master (Roche) to detect the transcription levels of inflammation-related gene Il1b.
as §1, with “12” for “24”
Mouse microglial cell line BV2 was treated with 100 ng/mL lipopolysaccharide (LPS) and 10 μM MZ24, MZ25, MZ26, MZ28, MZ29 and MZ31, respectively.

[3] = test system: microglia of C57BL/6 mice; experiment: LPS-induced inflammatory response of primary microglia (real-time PCR of Il1b and Il6); assay type: cell-based; details: 50 ng/mL LPS, 10 μM compound, 6 hours
Protocol: as §1, with “6” for “24”, “genes Il1b and Il6.” for “gene Il1b.”
as §1, with “6” for “24”

| SMILES | deubiquitinase activity of USP25 (Ubiquitin-Rhodamine 110 fluorescence intensity) [1] | also measured |
| --- | --- | --- |
| COc1ccc(CNCCO)cc1OCc1ccc(F)c(C(F)(F)F)c1 [MZ71] | can significantly inhibit | – |
| O=Cc1cc(Br)ccc1OCc1cc(F)c(F)cc1F [MZ38] | can significantly inhibit | – |
| OCCNCc1ccccc1NCc1ccc(F)c(C(F)(F)F)c1 [MZ74] | can significantly inhibit | – |
| COc1cc(OC)c(CN2CCN(CCO)CC2)c(OCc2cc(C(F)(F)F)cc(C(F)(F)F)c2)c1 [MZ24] | can significantly inhibit | LPS-induced Il1b expression ([2]; BV2, 100 ng/mL LPS, 12 hours): can significantly reduce |
| OCCNCc1cc(Br)ccc1OCc1cc(C(F)(F)F)cc(C(F)(F)F)c1 [MZ1] | can significantly inhibit | – |
| COc1cc(OC)c(CNCCO)c(OCc2ccc(F)c(C(F)(F)F)c2)c1 [MZ68] | can significantly inhibit | – |
| COc1cc(OC)c(CNc2ccc(Br)cn2)c(OCc2cc(C(F)(F)F)cc(C(F)(F)F)c2)c1 [MZ5] | can significantly inhibit | – |
| OCCNCc1ccccc1OCc1ccc(F)c(C(F)(F)F)c1 [MZ66] | can significantly inhibit | – |
| CCN1CCN(Cc2cc(Br)ccc2OCc2ccc(F)c(C(F)(F)F)c2)CC1 [MZ33] | can significantly inhibit | – |
| Fc1cc(F)c(COc2cc(CN3CCc4ccccc4C3)ccc2OC(F)F)cc1F [MZ30] | can significantly inhibit | – |
| O=Cc1ccc(OCc2ccc(F)c(C(F)(F)F)c2)c(OC(F)F)c1 [MZ40] | can significantly inhibit | – |
| OCCNCc1cc(Br)ccc1NCc1cccc(OC(F)(F)F)c1 [MZ77] | can significantly inhibit | LPS-induced Il1b expression [3]: can significantly reduce |
| OCCNCc1ccccc1NCc1cccc(OC(F)(F)F)c1 [MZ75] | can significantly inhibit | LPS-induced Il1b expression [3]: can significantly reduce |
| OCCNCc1ccc(OC(F)F)c(OCc2cc(C(F)(F)F)cc(C(F)(F)F)c2)c1 [MZ3] | can significantly inhibit | LPS-induced Il1b expression ([2]; BV2, 25 ng/mL LPS, 24 hours): can significantly reduce |
| O=Cc1ccc(OC(F)F)c(OCc2cc(C(F)(F)F)cc(C(F)(F)F)c2)c1 [MZ42] | can significantly inhibit | – |
| Fc1ccc(COc2ccc(Br)cc2CNCCC2CCN(Cc3ccccc3)CC2)cc1C(F)(F)F [MZ37] | can significantly inhibit | – |
| COc1cc(OC)c(C=O)c(OCc2ccc(F)c(C(F)(F)F)c2)c1 [MZ43] | can significantly inhibit | – |
| CCN(CC)CCNCc1ccc(OC(F)F)c(OCc2cc(F)c(F)cc2F)c1 [MZ27] | can significantly inhibit | – |

| SMILES | deubiquitinase activity of USP25 (Ubiquitin-Rhodamine 110 fluorescence intensity) [1] | also measured |
| --- | --- | --- |
| OCCN1CCN(Cc2ccc(OC(F)F)c(OCc3cc(C(F)(F)F)cc(C(F)(F)F)c3)c2)CC1 [MZ25] | can significantly inhibit | LPS-induced Il1b expression ([2]; BV2, 100 ng/mL LPS, 12 hours): can significantly reduce |
| NCc1cc(Br)ccc1OCc1ccc(F)c(C(F)(F)F)c1 [XMU1, (5-bromo-2-((4-fluoro-3-(trifluoromethyl)benzyl)oxy)phenyl)methanamine] | can significantly inhibit | LPS-induced Il1b expression [3]: can significantly reduce |
| OCCNCc1ccccc1OCc1cc(C(F)(F)F)cc(C(F)(F)F)c1 [MZ67] | can significantly inhibit | – |
| CN1CCN(Cc2ccc(OC(F)F)c(OCc3cc(C(F)(F)F)cc(C(F)(F)F)c3)c2)CC1 [MZ23] | can significantly inhibit | LPS-induced Il1b expression ([2]; BV2, 50 ng/mL LPS, 12 hours): can significantly reduce |
| O=Cc1cc(Br)ccc1OCc1ccc(F)c(C(F)(F)F)c1 [MZ39, 5-bromo-2-(4-fluoro-3-(trifluoromethyl)benzyloxy)benzaldehyde] | can significantly inhibit | – |
| COc1cc(OC)c(CNCCO)c(OCc2cc(C(F)(F)F)cc(C(F)(F)F)c2)c1 [MZ69] | can significantly inhibit | – |
| Fc1ccc(COc2ccc(Br)cc2CN(CCC2CCN(Cc3ccccc3)CC2)Cc2cc(Br)ccc2OCc2ccc(F)c(C(F)(F)F)c2)cc1C(F)(F)F [MZ36] | can significantly inhibit | – |
| Fc1cc(COc2ccc(Br)cc2CNCCc2c[nH]c3ccccc23)ccc1C(F)(F)F [MZ31] | can significantly inhibit | LPS-induced Il1b expression ([2]; BV2, 100 ng/mL LPS, 12 hours): can significantly reduce |
| COc1ccc(CNCCO)cc1OCc1cc(C(F)(F)F)cc(C(F)(F)F)c1 [MZ72] | can significantly inhibit | – |
| COc1cc(OC)c(CN2CCN(C)CC2)c(OCc2cc(C(F)(F)F)cc(C(F)(F)F)c2)c1 [MZ4] | can significantly inhibit | – |
| OCc1cc(Br)ccc1OCc1ccc(F)c(C(F)(F)F)c1 [MZ35] | can significantly inhibit | – |
| CN1CCN(Cc2ccc(OC(F)F)c(OCc3cc(F)c(F)cc3F)c2)CC1 [MZ28] | can significantly inhibit | LPS-induced Il1b expression ([2]; BV2, 100 ng/mL LPS, 12 hours): can significantly reduce |
| CCN(CC)CCNCc1cc(Br)ccc1OCc1cc(F)c(F)cc1F [MZ34] | can significantly inhibit | LPS-induced Il1b expression ([2]; BV2, 50 ng/mL LPS, 12 hours): can significantly reduce |
| OCCNCc1cc(Br)ccc1NCc1ccc(F)c(C(F)(F)F)c1 [MZ76] | can significantly inhibit | LPS-induced Il1b expression [3]: can significantly reduce |
| Cc1ccc(OCc2ccc(F)c(C(F)(F)F)c2)c(CN2CCN(CCO)CC2)c1 [MZ32] | can significantly inhibit | – |
| COc1cc(OC)c(C=O)c(OCc2cc(C(F)(F)F)cc(C(F)(F)F)c2)c1 [MZ41] | can significantly inhibit | – |
| CCN(CC)CCNCc1ccc(OC(F)F)c(OCc2cc(C(F)(F)F)cc(C(F)(F)F)c2)c1 [MZ26] | can significantly inhibit | LPS-induced Il1b expression ([2]; BV2, 100 ng/mL LPS, 12 hours): can significantly reduce |
| OCCN1CCN(Cc2ccc(OC(F)F)c(OCc3cc(F)c(F)cc3F)c2)CC1 [MZ29] | can significantly inhibit | LPS-induced Il1b expression ([2]; BV2, 100 ng/mL LPS, 12 hours): can significantly reduce |
